Reference: US20200289482A1, “CYSTIC FIBROSIS TRANSMEMBRANE CONDUCTANCE REGULATOR MODULATORS FOR TREATING AUTOSOMAL DOMINANT POLYCYSTIC KIDNEY DISEASE” (The Johns Hopkins University, priority 2017, published 2020)

Columns and labels:
cAMP in PN cells = experiment: Cyclic AMP enzyme immunoassay in cells; format: cell-based, mouse
Description: (§1) FIG. 4A, FIG. 4B, FIG. 4C, FIG. 4D, and FIG. 4E show (FIG. 4A-FIG. 4B) cAMP levels are reduced by VX-809. (FIG. 4A) cAMP levels in mouse tissue were reduced by VX-809. The kidney samples (n=6) analyzed were taken from those depicted in FIG. 1. (FIG. 4B) Confluent PN and PH cells were treated with VX-809 (10 μM) or DMSO for 16 h and then treated with forskolin (100 μM) for 30 min before the cells were harvested for the assay. Columns represent means±SEM. Statistical analysis was performed using a two-tailed Student's t-test. Each set of data is from three individual wells; Note that resting cAMP is greater in PN vs PH cells as previously shown (25). Also note that forskolin caused a large increase in cAMP. A smaller increase occurred with IBMX. However, the increase induced by forskolin alone was similar to that by IBMX plus forskolin. […] (FIG. 4C, FIG. 4D, and FIG. 4E) Adenylyl cyclase expression. (FIG. 4C) Western blot showing the expression of adenylyl cyclase (AC) 6 and AC3 in treated and control PN cells. (FIG. 4D-FIG. 4E) Columns represent means±SEM of the AC3 and AC6 expression. The data were analyzed by non-parametric t-test. The experiment was repeated four times. For all graphs, *P<0.05, **P<0.01, and ***P<0.001;
It has been shown previously in both animal and cell culture models of ADPKD that cells lacking functional PC1 have elevated cAMP levels when compared to normal (24). To assess the effect of CFTR correctors, cAMP activity was measured in PC1 conditional knockout mouse kidneys and in PN cells that were either left untreated or treated with VX-809. […] Cells were treated with forskolin, which increased cAMP levels drastically (FIG. 4B). […] Treating PN cells with forskolin or IBMX (FIG. 4B) increased the cAMP activity by ˜10-fold.
Confluent cells were treated with VX-809 (10 μM) or DMSO for 16 h before being harvested for assay. Cyclic AMP levels were measured with a direct cAMP Enzyme Immunoassay Kit (Sigma, # CA200) according to the manufacturer's protocol. The results are expressed as pmole/ml. Statistical analysis was performed using a two-tailed Student's t-test.

AC6 = experiment: Western blot of adenylyl cyclase 6 expression; format: cell-based, mouse; conditions: PN cells treated with VX-809
Description: as §1
(§2) There are two classes of adenylyl cyclases that are regulated by intracellular Ca^2+: one class is activated, and the other inhibited. […]

Hsp90 = experiment: Western blot of Hsp90 in kidney tissue lysates; format: in vivo, mouse; conditions: cyst induced pkd−/− mice, VX-809 30 mg/kg BW
Description: FIG. 7A, FIG. 7B, FIG. 7C, FIG. 7D, FIG. 7E, and FIG. 7F show chaperone expression is altered in mice by VX-809. (FIG. 7A-FIG. 7B) Representative Western blot images of HSP27, 70, 90 and HSP40 in lysates of kidney tissue from no cyst induced (ND), cyst induced with Doxycycline (D) or cyst induced pkd−/− mice treated with VX-809 (D+VX-809) 30 mg/kg BW. (FIG. 7C, FIG. 7D, FIG. 7E, and FIG. 7F) Columns represent averages±standard errors of HSP27, 70, 90 and HSP40 expression. Data were analyzed by non-parametric t-test. n=4 for each treated and control groups. Black lines between lanes represent representative experiments from the same gel. *P<0.05; **P<0.01; To facilitate their growth in the kidney, cysts have developed an altered network of proteins that most likely serves to protect them from stress (34). Next, it was determined whether VX-809 would alter the levels of Hsps in pkd−/− mice and in PN cells. […] Hsp 27, 70 and 90 are all elevated in cystic kidneys compared to normal controls. […] There is no change in Hsp 40. […] Both sets of data are consistent with an alteration in the heat shock response to cyst growth.

AC3 = experiment: Western blot of adenylyl cyclase 3 expression; format: cell-based, mouse; conditions: PN cells treated with VX-809
Description: as §1, §2

GADD153 = experiment: Immunostaining for GADD153 in mouse kidney sections; format: in vivo; conditions: PN21 mice, VX-809 vs DMSO
Excerpt: FIG. 12A, FIG. 12B, and FIG. 12C show GADD153 expression in kidneys of Pkd1^fl/fl; Pax8^rtTA; TetO-cre mice. Immunoflourescence images representing the GADD expression (green) in DMSO (FIG. 12A) or VX-809 (FIG. 12B) treated PN21 Pkd1^fl/fl in mouse. Columns (FIG. 12C) represent % area of GADD immunopositive (green) cells in DMSO or VX-809 treated PN21 Pkd1^fl/fl in mouse kidney sections. Data are expressed as mean 1+1 SEM of DMSO (vehicle)-treated (n=4) and VX-809-treated (n=4) mice. Statistical analysis was performed using a 2-tailed Student t-test. DMSO, dimethyl sulfoxide. Kidneys were fixed in 4% paraformaldehyde as described (62). Used here was the GADD153 antibody (Sc-7351), goat antirabbit (A21429, AlexaFluor 555, 1:1,000; Life Technologies, Carlsbad, Calif.) and DAPI (H-1200; Vector Laboratories, Burlingame, Calif.). […] Cells positive for GADD153 and the total number of cells were measured with ImageJ. The results are expressed as percentages;
Given that VX-809 alters an ensemble of Hsps, it was evaluated whether VX-809 alters proteins associated with ER stress. To address this question, the levels of three ER stress-associated proteins were measured, 78-kDa glucose-regulated protein (GRP78), ER oxidoreductin 1 (Ero1) and DNA damage-inducible protein 3 (GADD153), also known as C/EBP homologous protein (CHOP) (37). […]

In the case of lumacaftor [VX-809], the “forskolin-induced increase in cAMP” value (cAMP in PN cells; VX-809 10 μM 16 h, then forskolin 100 μM 30 min) is reported as “reduced the forskolin-induced increase in cAMP”, the “resting cAMP levels in PN cells” value (cAMP in PN cells; VX-809 10 μM, 16 h vs untreated PN cells) is reported as “significantly decreased the cAMP levels” and the “forskolin- or IBMX-induced increases in adenylyl cyclase activity” value (cAMP in PN cells; forskolin in combination with IBMX, data bars 5 and 9 FIG. 4B) is reported as “did not affect the forskolin- or IBMX-induced increases in adenylyl cyclase activity”. The “AC6 regulation (expression)” value (AC6) was “not AC6”, the “Hsp90 expression in kidneys” value (Hsp90) was “significantly less expression” and the AC3 levels (AC3) was “decreased”. The “GADD153 immunostaining in kidneys” value (GADD153) was “strong reduction”.
